Here are results for 1 molecule from paper PMC6591251, “Discovery of potent necroptosis inhibitors targeting RIPK1 kinase activity for the treatment of inflammatory disorder and cancer metastasis” (Cell Death & Disease, 2019).

A value given as a limit tells only on which side of the number the result lay.

For test [1], the system named is RFP-LL/2 cells. Nature of the test: Early metastasis/extravasation of tumor cells, 6 h after injection. The class given is in vivo, C57BL/6 mice. Particulars: 5 mg/kg ip. As to the method:
Studies have shown that RIPK1 kinase activity is involved in the promotion of tumor metastasis through death receptor 6-dependent necroptosis of endothelial cells[22] or VEGF-dependent activation of vascular permeability. We thus evaluated the therapeutic effect of PK68 on lung metastasis of mouse melanoma B16-F10 cells in vivo. […] After 2 weeks, the metastasis of B16-F10 cells was measured by histological analysis and assessed as the number of metastasis nodules in the lung. […] Two weeks after intravenous injection of RFP-LL/2 cells, RFP^+ LL/2 cells were isolated from the tumor tissues by flow cytometer sorting and no signal of phosphorylated RIPK1 was detected in these tumors cells (Supplementary Fig. 22). […] Further, we evaluated the effect of PK68 on the tumor cell transmigration across the cultured endothelium. […]
Melanoma B16-F10 cells (0.5 × 10^6 cells) or RFP-labeled lung carcinoma LL/2 cells (0.3 × 10^6 cells) were injected into C57BL/6 mice in a volume of 200 μl PBS via the tail intravenous injection. […] The lung metastasis of B16-F10 cells in mice was determined by accounting the number of metastasis nodules with a dissecting microscope (Leica) and histologic analysis. The lung metastasis of LL/2 cells in mice was analyzed by measuring RFP fluorescence intensities with the PerkinElmer IVIS Lumina II. […]

The target in test [2] is TNIK (Homo sapiens, UniProt Q9UKE5). Nature of the test: RBC kinase panel. The class given is biochemical. Further details: purchased Reaction Biology Corporation. The protocol: (§1) PK68 was tested at 1 μM in duplicate against a panel of 369 human kinases at Reaction Biology Corporation. Results are viewed in the human kinome phylogenetic tree.
Chain of TNIK (Q9UKE5 whole entry): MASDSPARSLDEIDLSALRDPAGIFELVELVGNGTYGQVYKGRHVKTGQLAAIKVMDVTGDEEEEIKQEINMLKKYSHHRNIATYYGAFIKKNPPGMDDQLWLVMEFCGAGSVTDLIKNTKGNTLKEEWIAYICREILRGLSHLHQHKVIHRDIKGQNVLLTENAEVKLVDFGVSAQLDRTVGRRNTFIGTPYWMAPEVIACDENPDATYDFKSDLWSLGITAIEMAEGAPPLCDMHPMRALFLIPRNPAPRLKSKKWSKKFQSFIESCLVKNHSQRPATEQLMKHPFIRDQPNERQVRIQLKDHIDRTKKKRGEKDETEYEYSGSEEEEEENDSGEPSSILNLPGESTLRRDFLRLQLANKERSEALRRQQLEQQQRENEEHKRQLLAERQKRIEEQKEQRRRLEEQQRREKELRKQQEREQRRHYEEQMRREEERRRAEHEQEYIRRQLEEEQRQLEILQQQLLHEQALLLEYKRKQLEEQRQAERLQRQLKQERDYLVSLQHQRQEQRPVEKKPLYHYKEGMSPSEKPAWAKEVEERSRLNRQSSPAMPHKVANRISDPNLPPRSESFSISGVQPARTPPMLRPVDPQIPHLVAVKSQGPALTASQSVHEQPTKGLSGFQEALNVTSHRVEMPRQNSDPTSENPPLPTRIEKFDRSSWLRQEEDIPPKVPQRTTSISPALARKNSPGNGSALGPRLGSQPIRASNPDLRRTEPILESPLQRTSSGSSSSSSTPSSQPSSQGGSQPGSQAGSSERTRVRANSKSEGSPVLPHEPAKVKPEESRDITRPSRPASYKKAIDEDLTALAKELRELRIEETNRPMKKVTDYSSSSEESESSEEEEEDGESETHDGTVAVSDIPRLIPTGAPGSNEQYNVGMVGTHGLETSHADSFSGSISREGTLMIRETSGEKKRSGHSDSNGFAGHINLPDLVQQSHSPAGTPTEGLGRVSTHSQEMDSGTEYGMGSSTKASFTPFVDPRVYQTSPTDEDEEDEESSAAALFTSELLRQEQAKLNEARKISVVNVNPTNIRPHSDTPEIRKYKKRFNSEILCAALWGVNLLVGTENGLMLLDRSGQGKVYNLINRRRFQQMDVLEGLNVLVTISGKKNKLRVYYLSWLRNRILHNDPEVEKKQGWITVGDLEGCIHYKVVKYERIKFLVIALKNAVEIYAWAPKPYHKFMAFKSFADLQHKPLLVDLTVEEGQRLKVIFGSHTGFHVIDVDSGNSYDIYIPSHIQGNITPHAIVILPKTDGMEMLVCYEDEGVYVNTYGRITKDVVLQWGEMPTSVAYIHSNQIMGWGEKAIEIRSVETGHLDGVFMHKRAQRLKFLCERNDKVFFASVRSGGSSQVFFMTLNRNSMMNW
(§2) ^a Compound PK68 was tested at 1 μM in duplicate against 369 kinases using the RBC kinase panel service of Reaction Biology Corporation. All the ATP concentrations used were 10 μM. […] Full protocol details are available at http://www.reactionbiology.com.

Test [3] addresses TRKA (Homo sapiens, UniProt P04629). The test is described as follows: RBC kinase panel. The class given is biochemical. Further details: purchased Reaction Biology Corporation. As to the method:
as §1, §2

Chain of TRKA (P04629 33-796): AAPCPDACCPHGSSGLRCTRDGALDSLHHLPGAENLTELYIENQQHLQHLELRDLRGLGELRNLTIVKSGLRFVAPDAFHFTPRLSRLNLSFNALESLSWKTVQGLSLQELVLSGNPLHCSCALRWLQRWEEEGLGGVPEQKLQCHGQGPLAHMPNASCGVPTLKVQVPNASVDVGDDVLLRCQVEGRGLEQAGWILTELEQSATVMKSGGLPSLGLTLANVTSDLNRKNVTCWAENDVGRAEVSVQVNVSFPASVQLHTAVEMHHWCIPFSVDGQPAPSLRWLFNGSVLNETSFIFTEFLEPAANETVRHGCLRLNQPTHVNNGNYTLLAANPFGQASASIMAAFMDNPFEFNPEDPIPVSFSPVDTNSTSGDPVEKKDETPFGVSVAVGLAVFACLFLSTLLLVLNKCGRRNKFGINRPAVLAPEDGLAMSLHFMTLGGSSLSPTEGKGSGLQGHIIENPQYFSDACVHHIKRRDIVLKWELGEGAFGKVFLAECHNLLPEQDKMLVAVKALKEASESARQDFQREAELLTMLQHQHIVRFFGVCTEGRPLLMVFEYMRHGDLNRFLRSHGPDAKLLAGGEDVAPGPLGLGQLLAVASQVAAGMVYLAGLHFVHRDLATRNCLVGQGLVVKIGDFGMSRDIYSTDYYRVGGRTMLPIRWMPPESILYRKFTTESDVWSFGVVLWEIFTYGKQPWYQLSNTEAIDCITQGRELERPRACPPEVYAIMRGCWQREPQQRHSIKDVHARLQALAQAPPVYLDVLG

As to `CC(=O)Nc1nc2ccc(-c3cnc(C)c(NC(=O)OC4CCCCC4)c3)cc2s1` [PK68, cyclohexyl (5-(2-acetamidobenzo[d]thiazol-6-yl)-2-methylpyridin-3-yl)carbamate], in test [1], the “number of RFP-LL/2 cells in the lung 6 h after injection” value is reported as “decreased number”. Besides, the Activity% in test [2] (1 μM, ATP 10 μM, Data1, Data2) was found to be 38.77%; in test [3] (1 μM, ATP 10 μM, Data1, Data2), 28.42%. In addition, the activity at 1 µM in test [2] (1 μM, ATP 10 μM, Data1, Data2) is 39%; in test [3] (1 μM, ATP 10 μM, Data1, Data2) it was 29.1%. Besides, the inhibition at 1 µM in test [2] (at 1000 nM) and in test [3] (at 1000 nM) was over 50% each time.

Broadly, the inhibition is how much of the control response was suppressed.
